# Reference: PMC1568117 (Environmental Health Perspectives, 1989)
# Columns and labels:
# B6C3F1 mice = conditions: week 91
# F344/N rats = conditions: week 92
compound,measurement,setting,value
c1ccccc1 [benzene],Survival in all groups,B6C3F1 mice,greater than 60%
same,Survival in all groups,F344/N rats,greater than 60%
